The source of these data is US20250327074A1 (SHAOXING INSTITUTE, ZHEJIANG UNIVERSITY, priority 2024, published 2025).

The assay has as its system TCG codon, mammalian cells. Description: TCG codon recoding efficiency of all amino acids (Table 1). Type of assay: cell-based. The settings on record: TCG codon recoding of the unnatural amino acid with the aaRS and mutation of the same table line. An excerpt: Specific details are shown in Table 1 below, where “wt” represents the wild-type aminoacyl-tRNA synthetase, “mutation sites” indicate the positions and types of mutations related to specific unnatural amino acid binding on the wild-type aminoacyl-tRNA synthetase, and “unnatural amino acid” represents the unnatural amino acid corresponding to the mutated aminoacyl-tRNA synthetase. In the unnatural amino acid encoding efficiency, “+” indicates a recoding efficiency greater than 40%, “++” greater than 60%, and “+++” greater than 80%.
Accordingly, this application compiles all amino acids reported in the literature that are recognized by orthogonal aminoacyl-tRNA synthetases in mammalian systems and evaluates their recoding efficiency using the TCG codon as an example.

Consider `N#Cc1ccc2c(C[C@H](N)C(=O)O)c[nH]c2c1` [compound 293], for which, under “numeric values”, the “Recoding rate (%)” value amounted to 84%. On the same count and under the same terms, next, `COc1ccc2c(C[C@H](N)C(=O)O)c[nH]c2c1` [compound 294]: 63%. Consider `Cc1ccc2c(C[C@H](N)C(=O)O)c[nH]c2c1C` [compound 295], for which the “Recoding rate (%)” value (class symbols) is recorded as “+++ (“+++” greater than 80%)”. On the same count and under the same terms, next, `COc1ccc2c(C[C@H](N)C(=O)O)c[nH]c2c1OC` [compound 296]: “+++ (“+++” greater than 80%)”. In the case of `N[C@@H](Cc1ccc(I)cc1)C(=O)O` [compound 297], the “Recoding rate (%)” value (numeric values) came to 43%. Same read-out and setting: next, `[N-]=[N+]=Nc1ccc(C[C@H](N)C(=O)O)cc1` [compound 298]: 88%.

In the case of `N[C@@H](Cc1csc2ccccc12)C(=O)O` [compound 299], the “Recoding rate (%)” value (numeric values) was 84%.

With `Cc1cccc2c(C[C@H](N)C(=O)O)c[nH]c12` [compound 300], the “Recoding rate (%)” value (numeric values) worked out at 69%.

Turning to `N[C@@H](Cc1c[nH]c2c(Cl)cccc12)C(=O)O` [compound 301], the “Recoding rate (%)” value (numeric values) amounted to 71%.

Regarding `N#Cc1cccc2c(C[C@H](N)C(=O)O)c[nH]c12` [compound 302], for the setting “numeric values”, the “Recoding rate (%)” value came out at 69%. Turning to `COc1cccc2c(C[C@H](N)C(=O)O)c[nH]c12` [compound 303], the “Recoding rate (%)” value (class symbols) is “+++ (“+++” greater than 80%)”. Still for that read-out and setting: next, `N[C@@H](Cc1ccc(C#CCCC2CCCC2)cc1)C(=O)O` [compound 304]: “++ (“++” greater than 60%)”. `CC(=O)c1ccc(C[C@H](N)C(=O)O)cc1` [compound 305]: the “Recoding rate (%)” value (numeric values) is given as 92%. The same measure, in the same setting: next, `N#Cc1cccc(C[C@H](N)C(=O)O)c1` [compound 306]: 75%.

With `N[C@@H](Cc1ccc2ccccc2c1)C(=O)O` [compound 307], the “Recoding rate (%)” value (numeric values) stood at 66%.

Regarding `COc1ccc(C[C@H](N)C(=O)O)cc1` [compound 308], the “Recoding rate (%)” value (numeric values) is 68%.

For `Cn1cc(C[C@H](N)C(=O)O)c2ccccc21` [compound 309], where the note is “numeric values”, the “Recoding rate (%)” value came out at 63%. Turning to `CCCCC#Cc1ccc(C[C@H](N)C(=O)O)cc1` [compound 310], the “Recoding rate (%)” value (class symbols) is listed as “+++ (“+++” greater than 80%)”.

Regarding `CCCCCC#Cc1ccc(C[C@H](N)C(=O)O)cc1` [compound 311], where the note is “class symbols”, the “Recoding rate (%)” value is recorded as “+++ (“+++” greater than 80%)”.

`CCCCCCC#Cc1ccc(C[C@H](N)C(=O)O)cc1` [compound 312]: the “Recoding rate (%)” value (class symbols) is recorded as “++ (“++” greater than 60%)”.

Consider `CCCCCCCC#Cc1ccc(C[C@H](N)C(=O)O)cc1` [compound 313], for which, where the note is “class symbols”, the “Recoding rate (%)” value was “+ (“+” indicates a recoding efficiency greater than 40%)”. Same read-out and setting: next, `CCCCC=Cc1ccc(C[C@H](N)C(=O)O)cc1` [compound 314]: “++ (“++” greater than 60%)”; `CCCCC=Cc1ccc(C[C@H](N)C(=O)O)cc1` [compound 315]: “+++ (“+++” greater than 80%)”. Consider `N[C@@H](Cc1ccc(C#CCCCBr)cc1)C(=O)O` [compound 316], for which the “Recoding rate (%)” value (class symbols) is recorded as “++ (“++” greater than 60%)”. The same measure, in the same setting: next, `N[C@@H](Cc1ccc(C#CCCCCCBr)cc1)C(=O)O` [compound 317]: “+ (“+” indicates a recoding efficiency greater than 40%)”. Still for that read-out and setting: next, `N[C@@H](Cc1ccc(C#CCc2ccccc2)cc1)C(=O)O` [compound 318]: “+++ (“+++” greater than 80%)”; `N[C@@H](Cc1ccc(C#CCCCc2ccccc2)cc1)C(=O)O` [compound 320]: “++ (“++” greater than 60%)”. The same measure, in the same setting: next, `N[C@@H](Cc1ccc(C=CCCc2ccc3ccccc3c2)cc1)C(=O)O` [compound 321]: “++ (“++” greater than 60%)”; `N[C@@H](Cc1ccc(C=CCCc2ccc3c(c2)CCC3)cc1)C(=O)O` [compound 322]: “++ (“++” greater than 60%)”.

Regarding `N[C@@H](Cc1ccc(O)c(O)c1)C(=O)O` [compound 323], the “Recoding rate (%)” value (numeric values) was found to be 48%.

Consider `C#Cc1cc(C[C@H](N)C(=O)O)ccc1OS(=O)(=O)F` [compound 324], for which the “Recoding rate (%)” value (class symbols) was “++ (“++” greater than 60%)”. For the compound `C=Cn1cc(C[C@H](N)C(=O)O)c2ccccc21` [compound 325], the “Recoding rate (%)” value (numeric values) came to 59%.

As for `C#CCn1cc(C[C@H](N)C(=O)O)c2ccccc21` [compound 326], under “class symbols”, the “Recoding rate (%)” value is given as “++ (“++” greater than 60%)”. As for `COc1ccc2c(C[C@H](N)C(=O)O)c[nH]c2c1` [compound 327], the “Recoding rate (%)” value (numeric values) turned out to be 80%.

Turning to `N[C@@H](Cc1ccc(Br)cc1)C(=O)O` [compound 328], under “numeric values”, the “Recoding rate (%)” value is 51%. On the same count and under the same terms, next, `N[C@@H](Cc1cccc(I)c1)C(=O)O` [compound 329]: 56%; `N#Cc1ccc(C[C@H](N)C(=O)O)cc1` [compound 330]: 45%; `N[C@@H](Cc1ccc(I)cc1)C(=O)O` [compound 331]: 43%. Turning to `COc1ccc(C[C@H](N)C(=O)O)cc1` [compound 332], for the setting “numeric values”, the “Recoding rate (%)” value amounted to 73%.

Turning to `N[C@@H](Cc1ccc(O)c(I)c1)C(=O)O` [compound 334], the “Recoding rate (%)” value (class symbols) was “+++ (“+++” greater than 80%)”. For the compound `N[C@@H](Cc1ccc(OS(=O)(=O)O)cc1)C(=O)O` [compound 335], the “Recoding rate (%)” value (numeric values) was 85%. On the same count and under the same terms, next, `N[C@@H](Cc1ccc(OCCBr)cc1)C(=O)O` [compound 337]: 60%. Take `N[C@@H](Cc1ccc(C(=O)CF)cc1)C(=O)O` [compound 338]: the “Recoding rate (%)” value (class symbols) was “++ (“++” greater than 60%)”. `N[C@@H](Cc1ccc(C(=O)c2ccccc2)cc1)C(=O)O` [compound 339]: for the setting “numeric values”, the “Recoding rate (%)” value is 68%. Consider `N[C@@H](Cc1ccc(C(=O)c2cccc(F)c2)cc1)C(=O)O` [compound 340], for which the “Recoding rate (%)” value (class symbols) is on record as “++ (“++” greater than 60%)”. The same measure, in the same setting: next, `N[C@@H](Cc1ccc(C(=O)c2cccc(Cl)c2)cc1)C(=O)O` [compound 341]: “++ (“++” greater than 60%)”; `N[C@@H](Cc1ccc(C(=O)c2ccc(F)cc2)cc1)C(=O)O` [compound 342]: “++ (“++” greater than 60%)”. As for `N[C@@H](Cc1ccc(C(=O)c2ccc(Cl)cc2)cc1)C(=O)O` [compound 343], the “Recoding rate (%)” value (class symbols) is recorded as “++ (“++” greater than 60%)”. Still for that read-out and setting: next, `N[C@@H](Cc1ccc(C(=O)c2ccc(Br)cc2)cc1)C(=O)O` [compound 344]: “++ (“++” greater than 60%)”. On the same count and under the same terms, next, `N[C@@H](Cc1ccc(C(=O)c2ccc(C(F)(F)F)cc2)cc1)C(=O)O` [compound 345]: “++ (“++” greater than 60%)”. Turning to `N[C@@H](Cc1ccc(C(=O)c2ccccc2)cc1)C(=O)O` [compound 346], the “Recoding rate (%)” value (numeric values) came out at 74%.

As to `N[C@@H](CCc1cc(=O)oc2cc(O)ccc12)C(=O)O` [compound 347], the “Recoding rate (%)” value (class symbols) is reported as “++ (“++” greater than 60%)”. Same read-out and setting: next, `[N-]=[N+]=NCCOc1ccc(C[C@H](N)C(=O)O)cc1` [compound 348]: “++ (“++” greater than 60%)”.

In the case of `[N-]=[N+]=NCC(=O)Nc1ccc(C[C@H](N)C(=O)O)cc1` [compound 349], where the note is “numeric values”, the “Recoding rate (%)” value stood at 84%. For the compound `[N-]=[N+]=NCCC(=O)Nc1ccc(C[C@H](N)C(=O)O)cc1` [compound 350], for the setting “class symbols”, the “Recoding rate (%)” value is “+++ (“+++” greater than 80%)”. Consider `C#CCCC(=O)Nc1ccc(C[C@H](N)C(=O)O)cc1` [compound 351], for which, where the note is “class symbols”, the “Recoding rate (%)” value was “+++ (“+++” greater than 80%)”. The same measure, in the same setting: next, `C#CCC(=O)Nc1ccc(C[C@H](N)C(=O)O)cc1` [compound 352]: “+++ (“+++” greater than 80%)”; `C=CCCC(=O)Nc1ccc(C[C@H](N)C(=O)O)cc1` [compound 353]: “+++ (“+++” greater than 80%)”.

Turning to `C=CCC(=O)Nc1ccc(C[C@H](N)C(=O)O)cc1` [compound 354], the “Recoding rate (%)” value (class symbols) is “+++ (“+++” greater than 80%)”. On the same count and under the same terms, next, `N[C@@H](Cc1ccc(NC(=O)CF)cc1)C(=O)O` [compound 355]: “+++ (“+++” greater than 80%)”; `N[C@@H](Cc1ccc(NC(=O)CCl)cc1)C(=O)O` [compound 356]: “+++ (“+++” greater than 80%)”. Still for that read-out and setting: next, `N[C@@H](Cc1ccc(CC(=O)O)cc1)C(=O)O` [compound 357]: “++ (“++” greater than 60%)”.

Turning to `N[C@@H](Cc1ccc(C(=O)CF)cc1)C(=O)O` [compound 358], the “Recoding rate (%)” value (class symbols) is “+++ (“+++” greater than 80%)”.

For `CC(=O)c1ccc(C[C@H](N)C(=O)O)cc1` [compound 359], the “Recoding rate (%)” value (numeric values) is 78%.

Consider `[N-]=[N+]=Nc1ccc(C[C@H](N)C(=O)O)cc1` [compound 360], for which the “Recoding rate (%)” value (numeric values) came to 79%.

Regarding `Nc1cc(C[C@H](N)C(=O)O)ccc1O` [compound 361], where the note is “numeric values”, the “Recoding rate (%)” value was determined as 50%. As for `N[C@@H](Cc1ccc(B(O)O)cc1)C(=O)O` [compound 362], where the note is “numeric values”, the “Recoding rate (%)” value was 66%. On the same count and under the same terms, next, `C#CCOc1ccc(C[C@H](N)C(=O)O)cc1` [compound 363]: 78%. Consider `N[C@@H](Cc1ccc(OCCCl)cc1)C(=O)O` [compound 364], for which the “Recoding rate (%)” value (class symbols) was “++ (“++” greater than 60%)”. For the compound `COc1ccc(C[C@H](N)C(=O)O)cc1` [compound 365], under “numeric values”, the “Recoding rate (%)” value is reported as 89%.

For the compound `N[C@@H](Cc1ccc(Br)cc1)C(=O)O` [compound 366], the “Recoding rate (%)” value (numeric values) is reported as 63%.

In the case of `N[C@@H](Cc1ccc([N+](=O)[O-])cc1)C(=O)O` [compound 367], the “Recoding rate (%)” value (class symbols) is listed as “+++ (“+++” greater than 80%)”.

Regarding `N#Cc1ccc(C[C@H](N)C(=O)O)cc1` [compound 368], the “Recoding rate (%)” value (class symbols) is listed as “+++ (“+++” greater than 80%)”. In the case of `COc1ccc(C[C@H](N)C(=O)O)cc1` [compound 369], the “Recoding rate (%)” value (numeric values) is listed as 84%.
